System: Pimephales promelas
Assay: Ichthyotoxicity in Pimephales promelas assessed as mortality measured every 30 mins for 2 hrs
Format: organism-based

Q: With `CC(=O)N1CCc2cc3c(c4c2[C@H]1Cc1ccccc1-4)OCO3` as the compound, how does the IC50 read?
A: 300 µM

Reference: ChEMBL document CHEMBL1149007, “The Ichthyotoxic Principles of Zanthoxylum clava-herculis” (J Nat Prod, 1986)
